Read-outs that look alike come from different tables or passages of the source.
Experiments:
[1] = Multiple ascending-dose (MAD) study, plasma pharmacokinetics; type: in vivo, human; conditions: for Cl/F / CLss/F / Css_max / Rac (AUC), accumulation ratio at steady state / Rac_Cmax, accumulation ratio at steady state / AUC(0-t) / Vd/F / Cmax / MRT inf / AUC / AUC(0-inf) / half-life / concentration at 10 day: mean (SD); for AUC(0-t) / Vd/F / Tmax / Tmax at 10 days / Cmax / MRT inf / AUC / AUC(0-inf) / half-life / concentration at 10 day: both sexes, human, plasma, oral; for MRT inf: read-out: MRT0-∞; for concentration at 10 day: read-out: Css_min
Experimental: Three drug doses (10, 20 and 40 mg) were utilized. A total of 36 healthy subjects of both genders were assigned randomly to the three groups (n = 12), with10 subjects taking HEC113995PA·H2O tablets and 2 taking placebo. The participants in the 10 mg dose group received a single dose daily in the morning after overnight fasting, or a single dose daily after a standard meal in the 20 mg and 40 mg dose groups for 10 consecutive days. Serial blood samples were collected within 0.5 h before drug administration on days 7, 8 and 9, and before and after drug administration on days 1 and 10 to determine plasma concentration and pharmacokinetic characteristics. Safety and tolerability were evaluated on days 4, 8, 13 and 15.
In the first dose group of single ascending-dose study, PK blood samples were collected at 0.5 h before administration and 0.5, 1, 1.5, 2, 2.5, 3, 4, 5, 6, 8, 10, 12, 24, 36, 48, and 72 h after administration. In other SAD groups, MAD groups and food effect study, PK blood samples were collected at 0.5 h before administration, and 1, 2, 3, 4, 5, 6, 7, 8, 10, 12, 24, 48, 72, 96, 120 and 144 h after administration. Approximately 4 mL of venous blood was obtained from each collection and placed in a vacuum collection vessel containing K2EDTA anticoagulant. The blood was centrifuged and packed according to the instruction provided by the Biological Sample Detection and Analysis Unit. Briefly, all samples were centrifuged at 4°C, 1,500 g for 10 min within 0.5 h after blood collection. After centrifugation, the plasma was aliquoted into two cryogenic storage tubes. The first tube (Tube A) contained at least 0.8 mL of plasma for analytical testing, and the remaining plasma is allocated into the backup tube (Tube B). The plasma samples were stored at −80°C within 1 h after aliquoting for further analysis.
The concentration of HEC113995PA·H2O in human plasma samples (K2EDTA) was quantitatively analyzed using the LC-MS/MS method. Plasma samples (50 μL) were processed using protein precipitation with 5 μL deuterated internal standard (HEC124659) and 100 μL acetonitrile. The Shimadzu LCMS-8060 system coupled with a GL Sciences Inc. InertSustain AQ-C18 HP column (50 × 2.1 mm, 3 μm) achieved chromatographic separation through gradient elution using 0.04% TFA aqueous solution (pH 2.1) and acetonitrile at 0.4 mL/min. ESI-positive mode detection employed optimized parameters: 300°C interface temperature, 250°C DL temperature, 3 L/min nebulizer gas, and 400°C heating block temperature.
Using WinNonlin 7.0 for non-compartmental analysis (NCA), pharmacokinetic (PK) parameters were meticulously calculated based on the actual sampling times for plasma, urine, and fecal samples from each subject post-administration. These parameters encompassed a comprehensive range, including the area under the concentration–time curve (AUC), AUC from time zero (pre-dose) to the time of the last measurable concentration (AUC0-t), and AUC from time zero (pre-dose) to infinity (AUC0-∞). Additionally, maximum observed plasma concentration (Cmax), time to achieve maximum plasma concentration (Tmax), terminal elimination half-life (t1/2), elimination rate constant (Ke), apparent volume of distribution (Vd/F), clearance rate (CL/F), and mean residence time (MRT) were also determined. The AUC0-t and AUC0-∞ values were computed using the linear trapezoidal rule method. Tmax and Cmax were ascertained based on the actual observed data. In the context of the multiple ascending-dose study, both the degree of fluctuation (DF) and the accumulation ratio at steady state (Rac) were thoroughly analyzed.

[2] = Solubility in solvents; type: physicochemical
[3] = Hygroscopicity; type: physicochemical; conditions: solid
[4] = test system: other subtypes of 5-HT receptors, histamine receptors, and acetylcholine receptors; experiment: In vitro affinities or activities to other receptors; type: binding
[5] = test system: mice; experiment: Behavioral despair models, mice; type: in vivo; conditions: single, multiple, and chronic administrations, unpublished data
[6] = MAD 10 mg (N = 10), D1, fasting
[7] = MAD 20 mg (N = 9), D1, after standard meal
[8] = MAD 20 mg (N = 9), D10, QD after standard meal
[9] = MAD 40 mg (N = 10), D1, after standard meal
[10] = MAD 40 mg (N = 10), D10, QD after standard meal

With `Cc1nc(-c2cnc(N3CCN(CCCc4c[nH]c5ccc(C#N)cc45)CC3)nc2)sc1C(N)=O` [HEC113995PA·H2O] the “gender difference in systemic exposure” value ([1]; 10 mg on an empty stomach, low sample size) was “no significant gender difference”, the accumulation ratio ([1]; 40 mg dose as printed in discussion) was 2.4 fold and the “continuous administration until PK steady state” value ([1]; 10 to 40 mg daily) was 7 days. For the same compound, the “accumulation ratios (Rac), range” value ([1]; 10–40 mg range, discussion) was 1.83–2.41, the “gender difference in systemic exposure” value ([1]; 20 and 40 mg following a standard meal, single and multiple administrations) was “no apparent gender difference” and the Cl/F [1, 6] was 9.4 L/h. For the same compound, the Cl/F [1, 7] was 8.1 L/h, the CLss/F [1, 8] was 7.27 (0.97) L/h and the Css_max [1, 8] was 202.6 (39.27) ng/mL. For the same compound, the “Rac (AUC), accumulation ratio at steady state” value [1, 8] was 1.83 (0.16), the “Rac_Cmax, accumulation ratio at steady state” value [1, 8] was 1.96 (0.28) and the Cl/F [1, 9] was 8.8 L/h. The CLss/F [1, 10] was 7.25 (1.4) L/h, the Css_max [1, 10] was 435.6 (87.5) ng/mL and the “Rac (AUC), accumulation ratio at steady state” value [1, 10] was 1.96 (0.35). For the same compound, the “Rac_Cmax, accumulation ratio at steady state” value [1, 10] was 2.1 (0.4), the “accumulation ratio Rac_Cmax, arithmetic mean range” value ([1]; after multiple administrations, 10, 20, 40 mg groups) was 1.9546–2.4058 and the AUC(0-t) ([1]; 10 mg, MAD 10 mg (N = 10), D1, fasting, read-out: AUC0-t) was 483 ng·h/mL. For the same compound, the AUC(0-t) ([1]; 10 mg, MAD 10 mg (N = 10), D1, fasting, read-out: AUC0–24h) was 486 ng·h/mL, the Vd/F ([1]; 10 mg, MAD 10 mg (N = 10), D1, fasting, read-out: Vz/F) was 350 L and the Tmax ([1]; 10 mg, MAD 10 mg (N = 10), D1, fasting, median (min, max), read-out: Tmax) was 5.5 h. The Vd/F ([1]; 10 mg, MAD D10, 10 mg dose group, read-out: Vss/F) was 521 L, the Tmax at 10 days ([1]; 10 mg, MAD D10, 10 mg dose group, median (min, max)) was 4.5 h and the AUC(0-t) ([1]; 20 mg, MAD 20 mg (N = 9), D1, after standard meal, read-out: AUC0-t) was 1520 ng·h/mL. It also gave an AUC(0-t) ([1]; 20 mg, MAD 20 mg (N = 9), D1, after standard meal, read-out: AUC0–24h) of 1530 ng·h/mL, a Vd/F ([1]; 20 mg, MAD 20 mg (N = 9), D1, after standard meal, read-out: Vz/F) of 189 L and a Tmax ([1]; 20 mg, MAD 20 mg (N = 9), D1, after standard meal, median (min, max), read-out: Tmax) of 5 h. For the same compound, the Vd/F ([1]; 20 mg, MAD 20 mg (N = 9), D10, QD after standard meal, read-out: Vss/F) was 402 L, the Tmax at 10 days ([1]; 20 mg, MAD 20 mg (N = 9), D10, QD after standard meal, median (min, max)) was 2 h and the AUC(0-t) ([1]; 40 mg, MAD 40 mg (N = 10), D1, after standard meal, read-out: AUC0-t) was 2920 ng·h/mL. For the same compound, the AUC(0-t) ([1]; 40 mg, MAD 40 mg (N = 10), D1, after standard meal, read-out: AUC0–24h) was 2930 ng·h/mL, the Vd/F ([1]; 40 mg, MAD 40 mg (N = 10), D1, after standard meal, read-out: Vz/F) was 192 L and the Tmax ([1]; 40 mg, MAD 40 mg (N = 10), D1, after standard meal, median (min, max), read-out: Tmax) was 5 h. It also gave a Vd/F ([1]; 40 mg, MAD 40 mg (N = 10), D10, QD after standard meal, read-out: Vss/F) of 321 L, a Tmax at 10 days ([1]; 40 mg, MAD 40 mg (N = 10), D10, QD after standard meal, median (min, max)) of 2.5 h and a Tmax ([1]; 40 mg, following a single administration, 10, 20, 40 mg groups, read-out: median time to peak concentration (Tmax), range) of 5 to 5.5 h. For the same compound, the Cmax [1, 6] was 30.6 ng/mL, the MRT inf [1, 6] was 40 h and the Cmax [1, 7] was 104 ng/mL. For the same compound, the MRT inf [1, 7] was 25.3 h, the AUC [1, 8] was 2790 ng·h/mL and the AUC(0-inf) [1, 8] was 5470 ng·h/mL. For the same compound, the half-life [1, 8] was 38.6 h, the concentration at 10 day [1, 8] was 66.8 ng/mL and the Cmax [1, 9] was 208 ng/mL. It also gave an MRT inf [1, 9] of 24.3 h, an AUC [1, 10] of 5730 ng·h/mL and an AUC(0-inf) [1, 10] of 10500 ng·h/mL. For the same compound, the half-life [1, 10] was 30.9 h, the concentration at 10 day [1, 10] was 132 ng/mL and the half-life ([1]; MAD D10, 10 mg dose group) was 39.1 h. The concentration at 10 day ([1]; MAD D10, 10 mg dose group) was 30 ng/mL, the AUC(0-inf) ([1]; MAD D10, head prints 20 mg (N = 9)) was 2490 ng·h/mL and the solubility ([2]; 95% ethanol) was “practically insoluble”. For the same compound, the solubility ([2]; N,N-dimethylacetamide (DMA)) was “soluble”, the solubility ([2]; acetone) was “practically insoluble” and the solubility ([2]; acetonitrile) was “practically insoluble”. For the same compound, the solubility ([2]; dichloromethane) was “practically insoluble”, the solubility ([2]; dimethyl sulfoxide (DMSO)) was “readily soluble” and the solubility ([2]; methanol) was “practically insoluble”. The solubility ([2]; water) was “practically insoluble”, the hygroscopicity [3] was “slight hygroscopicity” and the “higher affinities towards SERT and the 5-HT1A receptor than other receptors” value ([4]; in vitro selectivity) was “over 100 fold”. For the same compound, the “in vitro affinities or activities to other receptors” value ([4]; other 5-HT receptor subtypes, histamine and acetylcholine receptors, unpublished data) was “at the micromolar level” and the duration of immobility [5] was “significantly reduce”.

Reference: PMC11979273, “A phase I study to evaluate the safety, tolerability, and pharmacokinetics of HEC113995PA·H2O, a novel dual-acting serotonergic antidepressant, in healthy subjects” (Frontiers in Pharmacology, 2025)
